Consider five compounds from patent publication US9879036B2, “Mitochondrial aldehyde dehydrogenase-2 binding compounds and methods of use thereof” (Aviv Therapeutics, Inc., priority 2014, dated 2018).

Changes are numbered by the printed parent chain. Entries after “also recorded” stand apart in the source; their conditions may differ.

In one assay the target is T1, ALDH2 (Homo sapiens, UniProt P05091).
T1 construct: His-tag (N); made in house; host or cells: E. coli BL21
T1 sequence (P05091 18-517): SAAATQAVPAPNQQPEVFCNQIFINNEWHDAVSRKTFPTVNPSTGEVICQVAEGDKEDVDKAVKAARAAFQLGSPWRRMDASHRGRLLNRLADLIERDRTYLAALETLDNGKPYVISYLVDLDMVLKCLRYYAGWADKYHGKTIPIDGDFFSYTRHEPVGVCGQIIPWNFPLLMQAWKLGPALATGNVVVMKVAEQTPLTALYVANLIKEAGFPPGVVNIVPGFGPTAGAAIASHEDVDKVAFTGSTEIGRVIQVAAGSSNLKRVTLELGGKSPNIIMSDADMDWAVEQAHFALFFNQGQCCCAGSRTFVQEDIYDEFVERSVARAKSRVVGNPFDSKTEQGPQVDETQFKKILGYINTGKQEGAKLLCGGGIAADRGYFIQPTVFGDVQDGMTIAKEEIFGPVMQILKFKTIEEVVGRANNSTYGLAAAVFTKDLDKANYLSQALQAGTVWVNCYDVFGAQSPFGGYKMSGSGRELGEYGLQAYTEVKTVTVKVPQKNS
As to the kind of experiment: ALDH2 activity with 20 μM of the compound (Table 3). The following applies: 20 μM compound. It counts as biochemical. A digest of the protocol:
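Compound was tested at 20 μM. ALDH2 oxidation of acetaldehyde with NAD+ cofactor was followed spectrophotometrically as NADH accumulation at 340 nm. Activity is expressed relative to the enzyme's baseline activity, taken as 100%.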

In assay [1] the test system is FANCA deficiency lymphocyte cell line (FANCA B-lymphocyte, GM13022). Briefly: Proliferation of FANCA deficient lymphocytes under 4 HNE challenge (alamarBlue). It counts as cell-based. On the procedure: FANCA deficiency lymphocyte cell line (Fanconi Anemia, Complementation Group A, FANCA B-lymphocyte, GM13022) was purchased from Coriell Cell Repositories (403 Haddon Ave, Camden, N.J. 08103).
Standard cell culture conditions were used in this experiment. The culture medium (CM) consisted of culture medium RPMI1640, 15% heat-inactivated FBS, 2 mM L-glutamine, 1% Pen/Strep. Cells were suspended in 10-20 ml CM in T25 tissue culture flask in an upright position and incubated in a 37° C., 5% CO2 incubator. Cells were counted daily and diluted with fresh CM to 3×10^5 cells/ml. Cells thawed and maintained in culture for 3-12 days were used in these studies.
Cell densities of FANCA lymphocytes were determined and cells were diluted in RPMI1640 medium containing 15% FBS, 2 mM L-glutamine, 1% Pen/Strep to desired cell density. 4000 cells in 50-75 μl were plated onto each well in total 48 wells in columns 3-10 and rows B-G. This plating arrangement provided 6-replicates per column for each experimental condition. Plate was then centrifuged at 500 rpm for 2 min to ensure better distribution of cells across the well. For background medium controls, equal volume (50-75 μl) of dilution medium were added to wells B2, C2, D2.
For minimizing cells/medium drying in sample wells, 150 μl of 1×DPBS was added to each well of the 45 wells surrounding the sample and control wells. Plate was then incubated in a 37° C. 5% CO2 incubator for at least 4 hours before addition of new reagent.
Compounds were diluted from 20 mM stocks in DMSO with RPMI1640 medium containing 15% FBS. RPMI1640 medium containing 15% FBS and corresponding volume of DMSO was used as controls.
4 HNE (64 mM in 100% ethanol) was diluted to desired concentrations with RPMI1640 base medium.
AlamarBlue was added to each well to final 9.1 or 10% of the total volume in each well. Plate was further incubated in the 37° C. 5% CO2 incubator. The alamarBlue assay is designed to measure quantitatively the proliferation of human and animal cell lines in culture versus incubation time period.
Plate was removed from the CO2 incubator at a pre-designated time and placed in the microplate reader. The fluorescence level in each well was monitored at Ex 554 nm and Em 590 nm. Afterwards the numeric numbers/units were used for data analyses.
Fluorescence units in all wells were acquired by the microplate reader at each time point. Data were then exported to scientist's computer equipped with SoftMax ProS software. The average of Background units (Blk, 3×) and the average of each sample set (6 replicates) were determined. For data collected at each time point (cell culture incubation period), the average of Blk units were subtracted from the average of each set of the Sample units. These “net fluorescence unit” data were then presented in a plot consisted of different culture incubation time periods (the x-axis) versus the corresponding net fluorescence units (y-axis).
The “net fluorescence units” of each sample set were also compared to those of the “control” at each time point. “Control fluorescence units” were considered to be 100% at all the time points. Each set of “net fluorescence units” were divided by the “Control fluorescent units” and multiplied by 100 to obtain corresponding percentages. These “relative percentage” data were then presented in a plot consisted of time points (the x-axis) versus the corresponding relative percentages to control of 100 (y-axis).
The inhibitory effect of 4 HNE on the proliferation of FANCA lymphocytes was examined. 4000 cells in 75 μl of RPMI1640 medium containing 15% FBS were plated onto each sample well in a 96-well poly D-lysine coated black/clear cell culture plate and the plate was incubated in a 37° C. 5% CO2 incubator for 7 hours.
Stock of 4 HNE at 64 mM was diluted with RPMI1640 medium to 10 μM, 20 μM, 30 μM, 40 μM, 60 μM, 80 μM, and 120 μM. […]

The target in another assay is T2, ALDH2*1/*1 (Homo sapiens, UniProt P05091).
T2 construct: His-tag (N); made in house; host or cells: E. coli BL21 (pTrcHis vector)
T2 sequence (P05091 18-517): T1 sequence (P05091 18-517)
As to the kind of experiment: ALDH2 enzymatic activity, NADH accumulation at 340 nm, acetaldehyde substrate, wild type. The following applies: relative to baseline enzymatic activity (100%); for activity at 2.5 µM: 2.5 μM compound; for activity at 5 µM: 5 μM compound; for activity at 10 µM: 10 μM compound; for activity at 20 µM: 20 μM compound. It counts as biochemical. The essentials: (§1)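 N-terminally His-tagged recombinant human ALDH2 (wild type, or E487K co-expressed with wild type for heterotetramers) was made in E. coli and Ni-purified. Activity was followed as NADH formation at 340 nm with acetaldehyde and NAD+, with compound at 20 to 0.16 μM, expressed as % of baseline activity.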

The next assay deals with T3, ALDH2*1/*2 (Homo sapiens, UniProt P05091, E504K).
T3 construct: His-tag; made in house; host or cells: E. coli BL21 (pETDuet-1 co-expression)
T3 sequence (P05091 18-517): T1 sequence (P05091 18-517)
T3 sequence (P05091 18-517 E504K): T1 sequence (P05091 18-517) with E487K
As to the kind of experiment: ALDH2 enzymatic activity, NADH accumulation at 340 nm, acetaldehyde substrate, heterozygous form. It counts as biochemical. The following applies: relative to baseline enzymatic activity (100%); for activity at 2.5 µM: 2.5 μM compound; for activity at 5 µM: 5 μM compound; for activity at 10 µM: 10 μM compound; for activity at 20 µM: 20 μM compound. The essentials: as §1

Take `COc1ccc(CNC(=O)c2cc(-c3n[nH]cc3CO)ccc2OCC2CC2)cc1F` [AC32]: the activity at 20 µM on ALDH2 is > 250%. Besides, the “relative cell proliferation versus control without AC compounds” value in assay [1] (3.5 μM 4 HNE, 5 μM and 10 μM AC6, 10 μM AC32, 25 hours to 48 hours after 4 HNE treatment) is “higher levels of cell growth than “control”; also recorded: more efficient growth than control”. In assay [1] (10 μM compound, pretreatment 2 hours before 6 μM 4 HNE challenge), the “FANCA-deficiency lymphocyte cell growth versus 4 HNE only or 2 μM ALDH2 activators” value is “higher levels of cell growth”. Moreover, in assay [1] (pretreatment 2 hours before 3.5 μM 4 HNE challenge, 2 to 10 μM compound), the “FANCA-deficiency lymphocyte cell growth versus 4 HNE only” value is on record as “higher levels of cell growth”.

As for `COc1ccc(CNC(=O)c2cc(-c3ccccc3CO)ccc2OCC2CC2)cc1F` [AC2, 4-(cyclopropylmethoxy)-N-(3-fluoro-4-methoxybenzyl)-2′-(hydroxymethyl)-[1,1′-biphenyl]-3-carboxamide], at ALDH2*1/*1, the activity at 2.5 µM turned out to be 215%, the activity at 5 µM is 275%, the activity at 10 µM came to 328% and the activity at 20 µM was 443%. On ALDH2, the activity at 20 µM was > 250%. Also, at ALDH2*1/*2, the activity at 2.5 µM turned out to be 256%, the activity at 5 µM came out at 338%, the activity at 10 µM was 408% and the activity at 20 µM was 471%.

`CCCCCC(O)/C=C/C=O` (stereo not drawn) [4 HNE, trans-4-Hydroxynonenal, reference compound]: the “relative cell proliferation rate (control = 100%)” value in assay [1] (3.5 μM 4 HNE only, 25 hours to 48 hours after 4 HNE treatment) was 83%. Besides, the “level of FANCA cell proliferation” value in assay [1] (4 HNE 2.5 to 30 μM, no ALDH2 activator) is “reduction of the level of cell proliferation in a concentration-dependent manner”.

In the case of `COc1ccc(CNC(=O)c2cc(-c3sccc3CO)cnc2OCC2CC2)cc1F` [AC26, 2-(cyclopropylmethoxy)-N-(3-fluoro-4-methoxybenzyl)-5-(3-(hydroxymethyl)thiophen-2-yl)nicotinamide], on ALDH2*1/*1, the activity at 2.5 µM is 199%, the activity at 5 µM turned out to be 235%, the activity at 10 µM came out at 352% and the activity at 20 µM was 394%. In addition, the activity at 20 µM on ALDH2 was > 250%. For the same compound, on ALDH2*1/*2, the activity at 2.5 µM was determined as 188%, the activity at 5 µM worked out at 238%, the activity at 10 µM amounted to 261% and the activity at 20 µM was determined as 281%.

With `COc1ccc(CNC(=O)c2cc(-c3c(CO)ccc[n+]3[O-])ccc2OCC2CC2)cc1F` [AC14, 2-(4-(cyclopropylmethoxy)-3-((3-fluoro-4-methoxybenzyl)carbamoyl)phenyl)-3-(hydroxymethyl)pyridine 1-oxide], on ALDH2*1/*1, the activity at 2.5 µM was 134%, the activity at 5 µM was found to be 138%, the activity at 10 µM amounted to 162% and the activity at 20 µM was determined as 189%. Besides, the activity at 20 µM on ALDH2 lay in the range of 150 to 250%. Further, at ALDH2*1/*2, the activity at 2.5 µM amounted to 103%, the activity at 5 µM was 121%, the activity at 10 µM turned out to be 157% and the activity at 20 µM is 194%.
